Data from patent US20160045442A1, “STABLE PHARMACEUTICAL COMPOSITIONS OF MESALAMINE” (CADILA HEALTHCARE LIMITED, priority 2014, published 2016).

Assay: Bulk density and tapped density of mesalamine powder (USP Test 616)
Format: physicochemical
Conditions: mesalamine used to prepare the composition as per Example 3
Description: Important physicochemical characteristics of powders are the density properties such as bulk and tapped density, weight variation and flow properties such as angle of repose. Bulk density is the undisturbed packing density of that substance and tapped density relates to the packing density after tapping a bed of substance until no change in the packing density is seen. Bulk density and tapped density, can be determined using compendial bulk density apparatus, such as the method given in Test 616 “Bulk Density and Tapped Density,” United States Pharmacopeia 29, United States Pharmacopeial Convention, Inc., Rockville, Md., 2005 (“USP”).

Compound Nc1ccc(O)c(C(=O)O)c1 [Mesalamine, mesalamine] has a bulk density of 0.483 g/mL and a tapped density of 0.694 g/mL.
